This note sets out measurements from patent US4988686A, “Cephem compounds and anti-bacterial agent” (Meiji Seika Kabushiki Kaisha, priority 1988, dated 1991).

Converted amounts (≈) assume the structure as drawn. Read-outs that look alike come from different tables or passages of the source.

Experiment in all cases: agar-dilution method, minimum inhibitory concentration
What all share (format): cell-based

For test [1], the system named is Serratia marcescens No. 1. The source says:
(§1) In order to illustrate the utility of the objective compound (I), anti-bacterial activities measured by the agar-dilution method for some of these compounds (I) are shown in table 1.

Test [2] concerns Cytrobacter freundii GN346. As to conditions: read-out: Minimum Inhibitory Concentration.
Description: as §1

Test [3] concerns Escherichia coli 255.
Description: as §1

The test system of test [4] is Proteus vulgaris 76.
Description: as §1

In test [5] the test system is Klebsiella pneumoniae GN69.
Description: as §1

In test [6] the test system is Escherichia coli No. 29.
Description: as §1

Test [7] has as its system Bacillus subtilis ATCC 6633.
Description: as §1

For test [8], the system named is Pseudomonas aeruginosa IMA-1007.
Description: as §1

Test [9] deals with Enterobacter cloacae GN7471.
Description: as §1

Test [10] concerns Pseudomonas aeruginosa E-2.
Description: as §1

The subject of test [11] is Staphylococcus aureus 209PJC-1.
Description: as §1

Test [12] deals with Pseudomonas cepacia M-0527. As to conditions: Burkholderia cepacia, M0527.
Description: as §1

Test [13] relates to Pseudomonas aeruginosa M-0148.
Description: as §1

[14] abbreviates: Serratia marcescens No. 1, agar-dilution method, read-out: Minimum Inhibitory Concentration.
Where [15] appears, read: Cytrobacter freundii GN346, agar-dilution method.
Where [16] appears, read: Proteus vulgaris 76, agar-dilution method, read-out: Minimum Inhibitory Concentration.
[17] abbreviates: Klebsiella pneumoniae GN69, agar-dilution method, read-out: Minimum Inhibitory Concentration.
[18] abbreviates: ATCC6633, Bacillus subtilis ATCC 6633, agar-dilution method, read-out: Minimum Inhibitory Concentration.
Where [19] appears, read: IMA1007, Pseudomonas aeruginosa IMA-1007, agar-dilution method, read-out: Minimum Inhibitory Concentration.
Setting [20] is: Enterobacter cloacae GN7471, agar-dilution method, read-out: Minimum Inhibitory Concentration.
The mark [21] stands for this setting: E2, Pseudomonas aeruginosa E-2, agar-dilution method, read-out: Minimum Inhibitory Concentration.
[22] abbreviates: 209PJC1, Staphylococcus aureus 209PJC-1, agar-dilution method, read-out: Minimum Inhibitory Concentration.
Setting [23] is: M0148, Pseudomonas aeruginosa M-0148, agar-dilution method, read-out: Minimum Inhibitory Concentration.

Take `CO/N=C(\C(=O)N[C@@H]1C(=O)N2C(C(=O)O)=C(/C=C/c3cc(=O)c(O)cn3O)CS[C@H]12)c1csc(N)n1` [Example 2, (6R, 7R)-7-[(Z)-2-(2-aminothiazol-4-yl)-2-methoxyiminoacetamido]-3-[2-(1,5-dihydroxy-4-pyridon-2-yl)vinyl]-ceph-3-em-4-carboxylic]: the MIC in test [1] (setting [14]) is at most 0.025 µg/mL; in test [2] (setting [15]), 0.1 µg/mL (≈ 0.187 µM); in test [3] it was at most 0.025 µg/mL; in test [4] (setting [16]), at most 0.025 µg/mL; in test [5] (setting [17]) it was 0.05 µg/mL (≈ 0.0935 µM); in test [6], at most 0.025 µg/mL. Besides, the MIC was 6.25 µg/mL (≈ 11.7 µM) in test [7] (setting [18]); 0.1 µg/mL (≈ 0.187 µM) in test [8] (setting [19]); 0.05 µg/mL (≈ 0.0935 µM) in [9] (setting [20]); 0.1 µg/mL (≈ 0.187 µM) in test [10] (setting [21]); 25 µg/mL (≈ 46.8 µM) in test [11] (setting [22]); at most 0.025 µg/mL in test [12]. In test [13] (setting [23]), the MIC stood at 0.2 µg/mL (≈ 0.374 µM).
As for `CO/N=C(\C(=O)N[C@@H]1C(=O)N2C(C(=O)O)=C(/C=C/c3cc(=O)c(O)cn3C)CS[C@H]12)c1csc(N)n1` [Example 7, (6R ,7R)-7 - [(Z )-2-(2-aminothiazol-4-yl)-2-methoxyiminoacetamido]-3-[2-(5-hydroxy-1-methyl-4-pyridon-2-yl)vinyl]-ceph-3-em-4-carboxylic acid, trans-isomer], the MIC in [1] (setting [14]) is at most 0.025 µg/mL; in [2] (setting [15]), 1.56 µg/mL (≈ 2.93 µM); in [3] it was 0.1 µg/mL (≈ 0.188 µM); in test [4] (setting [16]) it was at most 0.025 µg/mL; in test [5] (setting [17]), 0.05 µg/mL (≈ 0.0939 µM); in test [6], 0.05 µg/mL (≈ 0.0939 µM). Further, the MIC is 0.78 µg/mL (≈ 1.46 µM) in [7] (setting [18]); 1.56 µg/mL (≈ 2.93 µM) in test [8] (setting [19]); 0.1 µg/mL (≈ 0.188 µM) in test [9] (setting [20]); 1.56 µg/mL (≈ 2.93 µM) in test [10] (setting [21]); 6.25 µg/mL (≈ 11.7 µM) in [11] (setting [22]); at most 0.025 µg/mL in test [12]. Further, the MIC in [13] (setting [23]) stood at 12.5 µg/mL (≈ 23.5 µM).
Take `CC(C)(O/N=C(\C(=O)N[C@@H]1C(=O)N2C(C(=O)O)=C(/C=C/c3cc(=O)c(O)cn3O)CS[C@H]12)c1csc(N)n1)C(=O)O` [Example 5, (6R,7R)-7-[(Z)-2-(2-aminothiazol-4-yl)-2-(1-methyl-1carboxy)ethoxyiminoacetamido]-3-[2-(1,5-dihydroxy-4-pyridon-2-yl)vinyl]-ceph-3-em-4-carboxylic acid, trans-isomer]: the MIC in test [1] (setting [14]) is 0.05 µg/mL (≈ 0.0824 µM); in [2] (setting [15]), 12.5 µg/mL (≈ 20.6 µM); in test [3] it was at most 0.025 µg/mL; in [4] (setting [16]), at most 0.025 µg/mL; in [5] (setting [17]), at most 0.025 µg/mL; in [6], 0.1 µg/mL (≈ 0.165 µM). Further, the MIC in test [7] (setting [18]) is 100 µg/mL (≈ 165 µM); in test [8] (setting [19]), at most 0.025 µg/mL; in [9] (setting [20]) it was 0.78 µg/mL (≈ 1.29 µM); in test [10] (setting [21]), at most 0.025 µg/mL; in [11] (setting [22]) it was over 100 µg/mL; in test [12] it was at most 0.025 µg/mL. Besides, the MIC in test [13] (setting [23]) was at most 0.025 µg/mL.
For `CO/N=C(\C(=O)N[C@@H]1C(=O)N2C(C(=O)O)=C(/C=C\c3cc(=O)c(O)cn3OC)CS[C@H]12)c1csc(N)n1` [Example 10], the MIC was 0.2 µg/mL (≈ 0.365 µM) in [1] (setting [14]); 25 µg/mL (≈ 45.6 µM) in [2] (setting [15]); 0.2 µg/mL (≈ 0.365 µM) in [3]; 0.1 µg/mL (≈ 0.182 µM) in test [4] (setting [16]); 0.2 µg/mL (≈ 0.365 µM) in test [5] (setting [17]); 0.2 µg/mL (≈ 0.365 µM) in test [6]. The MIC in [7] (setting [18]) was 0.78 µg/mL (≈ 1.42 µM); in [8] (setting [19]), 0.78 µg/mL (≈ 1.42 µM); in test [9] (setting [20]), 1.56 µg/mL (≈ 2.84 µM); in test [10] (setting [21]), 0.78 µg/mL (≈ 1.42 µM); in [11] (setting [22]) it was 12.5 µg/mL (≈ 22.8 µM); in test [12], 12.5 µg/mL (≈ 22.8 µM). Besides, the MIC in test [13] (setting [23]) was 12.5 µg/mL (≈ 22.8 µM).
For `CC(C)(O/N=C(\C(=O)N[C@@H]1C(=O)N2C(C(=O)[O-])=C(C[n+]3ccccc3)CS[C@H]12)c1csc(N)n1)C(=O)O` [Ceftazidime, reference compound], the MIC in test [1] (Serratia marcescens, NO.1, read-out: Minimum Inhibitory Concentration) was at most 0.025 µg/mL; in [2], 25 µg/mL (≈ 45.7 µM); in test [3], 25 µg/mL (≈ 45.7 µM); in [4] (Proteus vulgaris, 76, read-out: Minimum Inhibitory Concentration), 0.05 µg/mL (≈ 0.0915 µM); in test [5] (Klebsiella pneumoniae, GN69, read-out: Minimum Inhibitory Concentration), 0.1 µg/mL (≈ 0.183 µM); in [6], 0.2 µg/mL (≈ 0.366 µM). Also, the MIC was found to be 3.13 µg/mL (≈ 5.73 µM) in test [7] (Bacillus subtilis, ATCC6633, read-out: Minimum Inhibitory Concentration); 0.78 µg/mL (≈ 1.43 µM) in [8] (Pseudomonas aeruginosa, IMA1007, read-out: Minimum Inhibitory Concentration); 3.13 µg/mL (≈ 5.73 µM) in [9] (Enterobacter cloacae, GN7471, read-out: Minimum Inhibitory Concentration); 0.39 µg/mL (≈ 0.714 µM) in [10] (Pseudomonas aeruginosa, E2, read-out: Minimum Inhibitory Concentration); 3.13 µg/mL (≈ 5.73 µM) in test [11] (Staphylococcus aureus, 209PJC1, read-out: Minimum Inhibitory Concentration); 0.39 µg/mL (≈ 0.714 µM) in test [12]. Besides, the MIC in test [13] (Pseudomonas aeruginosa, M0148, read-out: Minimum Inhibitory Concentration) was 1.56 µg/mL (≈ 2.85 µM).
Turning to `Cn1cc(O)c(=O)cc1/C=C/C1=C(C(=O)O)N2C(=O)[C@@H](NC(=O)/C(=N\OC(C)(C)C(=O)O)c3csc(N)n3)[C@H]2SC1` [Example 12, (6R,7R)-7-[(Z)-2-(2-aminothiazol-4-y1)-2-(1-methyl-1carboxy)ethoxyiminoacetamido]-3-[2-(5-hydroxy-1-methyl-4-pyridon-2-yl)vinyl]-ceph-3-em-4-carboxylic acid, trans-isomer], the MIC in [1] (setting [14]) was 0.1 µg/mL (≈ 0.165 µM); in test [2] (setting [15]), 3.13 µg/mL (≈ 5.18 µM); in [3], 0.05 µg/mL (≈ 0.0827 µM); in test [4] (setting [16]), at most 0.025 µg/mL; in [5] (setting [17]), 0.05 µg/mL (≈ 0.0827 µM); in test [6], 0.1 µg/mL (≈ 0.165 µM). Besides, the MIC in test [7] (setting [18]) is 12.5 µg/mL (≈ 20.7 µM); in test [8] (setting [19]), at most 0.025 µg/mL; in [9] (setting [20]), 0.2 µg/mL (≈ 0.331 µM); in test [10] (setting [21]) it was 0.05 µg/mL (≈ 0.0827 µM); in [11] (setting [22]), 100 µg/mL (≈ 165 µM); in test [12] it was at most 0.025 µg/mL. The MIC in [13] (setting [23]) turned out to be 0.2 µg/mL (≈ 0.331 µM).
Regarding `CC(C)(O/N=C(\C(=O)N[C@@H]1C(=O)N2C(C(=O)O)=C(/C=C/c3cc(=O)c(O)cn3Cc3ccncc3)CS[C@H]12)c1csc(N)n1)C(=O)O` [Example 21, (6R,7R)-7-[(Z)-2-aminothiazol-4-y1)-2-(1-methyl-1-carboxy)ethoxyiminoacetamido]-3-[2-(5-hydroxy-1-(4-pyridyl)methyl-4-pyridon-2-y1)vinyl]-ceph-3-em-4carboxylic acid, trans-isomer], the MIC turned out to be 0.1 µg/mL (≈ 0.147 µM) in [1] (setting [14]); 6.25 µg/mL (≈ 9.17 µM) in test [2] (setting [15]); 0.1 µg/mL (≈ 0.147 µM) in test [3]; 0.05 µg/mL (≈ 0.0733 µM) in test [4] (setting [16]); 0.1 µg/mL (≈ 0.147 µM) in test [5] (setting [17]); 0.1 µg/mL (≈ 0.147 µM) in [6]. Further, the MIC in test [7] (setting [18]) is 12.5 µg/mL (≈ 18.3 µM); in test [8] (setting [19]), at most 0.025 µg/mL; in [9] (setting [20]), 1.56 µg/mL (≈ 2.29 µM); in test [10] (setting [21]) it was 0.05 µg/mL (≈ 0.0733 µM); in [11] (setting [22]) it was 100 µg/mL (≈ 147 µM); in [12], at most 0.025 µg/mL. In test [13] (setting [23]), the MIC turned out to be 0.2 µg/mL (≈ 0.293 µM).
